According to patent publication US8809368B2, “Compounds affecting gap junction activity” (Kansas State University Research Foundation, priority 2006, dated 2014):

How the values were obtained:
[1] = system: T47D human breast cancer cells; experiment: Soft agar colony growth, T47D cells; format: cell-based; conditions: for effect on breast cancer cell colony growth: Table 2
Protocol: Base agar plates were prepared containing 0.8% agar and 0.4% agar in Ham's F12. Cells (5×10^4 cells/33 mm^2 well) were suspended in 100 μl of Ham's F12 with 0.4% agar and plated. These plates were maintained at 37° C. for 7 days and examined for the presence of colonies. Individual colonies of 50 μm or greater were examined. T47D cells were treated with 1, 10 and 100 nM PQ1 and SA (succinic acid) as a solvent control. Individual colonies of 50 μm or greater were examined. Statistical significance, *p<0.05, of at least three experiments
FIG. 3(A) MDA-MB-453 and (B) T47D human breast cancer cells were treated with 10 μM of various quinolines for 7 days. Base agar plates were prepared containing 0.8% agar and 0.4% agar in Ham's F12. Cells (5×10^4 cells/33 mm well) were suspended in 100 μl of Ham's F12 with 0.4% agar and plated. These plates were maintained at 37° C. for 7 days and examined for the presence of colonies. Individual colonies of 40 μm or greater were examined. […] However, PQ3 caused a 2.3-fold increase in colony growth in MDA-MB-453 cells and PQ2 caused a 2.6-fold increase in T47D colony growth compared to DMSO. FIGS. 7 and 8 show MDA-MB-453 and T47D colony growth for various concentrations of PQ1 and SA tested for 7 days. The procedures are generally as described above. The cell colony growth decreased using 10 and 100 nM PQ1 for both cell types.
Colony Growth Assay: T47D human breast cancer cells were treated with PQ1. Base agar plates were prepared containing 0.8% agar and 0.4% agar in Ham's F12. Cells (5×10^4 cells/33 mm2 well) were suspended in 100 μl of Ham's F12 with 0.4% agar and plated. These plates were maintained at 37° C. for 7 days and examined for the presence of colonies. Individual colonies of 40 um or greater were examined.
Various oncogenes (e.g. ras, raf, neu, src, mos) down-regulate GJIC while several tumor suppressor genes can up-regulate GJIC. […] Cells were grown in soft agar to assess their capacity for anchorage-independent growth, which is a key feature of cell transformation due to the importance of cell-cell and cell-matrix based tumor suppression. MEC and T47D cells were treated with 10, 100, 1000, and 10000 nM PQ1 for 7 days. A graphical presentation of three experiment results is presented in log scale of PQ1 concentration. […] A 100 nM PQ1 inhibits 66% of colony growth compared to controls, without PQ1 treatment or 100 nM succinic acid.
Colony Growth Using Soft Agar. Cells were treated with 0, 10, 100, 200 and 500 nM PQ1 for 7 days. Base agar plates were prepared containing 0.8% agar and 0.4% agar in Ham's F12. Cells (5×10^4 cells/33 mm^2 well) were suspended in 100 μl of Ham's F12 with 0.4% agar and plated. These plates were maintained at 37° C. for 7 days and examined for the presence of colonies. Individual colonies of 50 μm or greater were examined.

[2] = system: R28 cells; experiment: Dye transfer/scrape loading gap junction assay in R28 cells; format: cell-based, rat; conditions: 10 μM for 40 minutes
Protocol: To determine the effects of the compounds of the invention on gap junctions, […] R28 cells and lucifer yellow dye and rhodamine dextran were used to study gap junction. (Das, S.; Lauer, J.; Barnett, M.; Lin, D.; Akoev, V.; Battina, S.; Hua, D. H.; Takemoto, D. J. PKCγ phosphorylates connexin50 on serine-430. A presentation at 2006 ARVO Annual Meeting, Apr. 30-May 4, 2006, Fort Lauderdale, Fla.). […] The cells were treated with different compounds as shown @ 10 μM for 40 minutes. A mixture of lucifer yellow (LY) and rhodamine dextran (RD) was added to the cells at the center of the coverslip. Two cuts across the coverslip were made to form a transient tear in the plasma membranes of the cells to permit dye transfer through gap junctions. Cells were incubated with the dye for 20 minutes, then fixed and examined by fluorescent microscopy. For quantitative analysis the extent of dye transfer was estimated by counting the number of LY and RD labeled cells in the microscopic field and graphed. […] PQ3 is useful as a drug having reduced gap junction inhibitory activity. The gap junction activity of other compounds of the invention may be tested as described herein without the use of undue experimentation.
Gap junction activity assay. R28 cells were grown to 90% confluency on coverslips. They were treated with PQ1 at 10 μM for 40 min. A mixture of 1% each, in PBS, Lucifer yellow (LY) and Rhodamine Dextran (RD) (Molecular Probes, Eugene, Oreg.) were added to the cells at the center of the coverslip. Two cuts across the coverslip were made to form a transient tear in the plasma membranes of the cells to permit dye entry into cells. Cells were incubated with 2.5 μl of both of the dyes for 20 min, then fixed in 2.5% paraformaldehyde, washed in PBS and examined by fluorescent microscopy using a Nikon C1 confocal microscopy. For quantitation, the extent of dye transfer was calculated by counting the number of LY-labeled cells from the initial scrape with subtraction of RD-labeled cells, as a cell damage control, in the microscopic field. Four points per slide were photographed. The experiments were repeated six times, and data are means±SEM.

[3] = system: ZR75; experiment: Gap junction intercellular communication, ZR75 cells; format: cell-based, human; conditions: Table 1

## COc1cc(N)c2nccc(C)c2c1Oc1cccc(C(F)(F)F)c1 [PQ3, 8-Amino-6-methoxy-4-methyl-5-(3-trifluoromethylphenyloxy)quinoline]
[1]; 10 μM, 7 days
  effect on colony growth: inhibitory effect
[1]
  effect on breast cancer cell colony growth: Decrease
[2]; Rattus norvegicus, R28, 40 min, as compared with the control, read-out: inhibitory activity on gap junction dye transfer
  inhibition at 10 µM: ~20%
[3]
  effect on gap junction intercellular communication: No effect

## COc1cc(NCCCN)c2nccc(C)c2c1Oc1cccc(C(F)(F)F)c1.O=C(O)CCC(=O)O [PQ1, 6-Methoxy-8-[(3-aminopropyl)amino]-4-methyl-5-(3-trifluoromethylphenyloxy) quinoline succinic acid]
[1]; 10 μM, 7 days, compared to control
  colony growth attenuation: 80-95%
[1]; 10, 100, 1000 and 10000 nM, 7 days
  colony growth compared to control: significant inhibition
[1]; 10 and 100 nM, 7 days
  cell colony growth: decreased
[1]; Homo sapiens, 168 h, 100 nM, 7 days, compared to controls
  inhibition at 0.1 µM: 66%
[1]
  effect on breast cancer cell colony growth: Decrease
[2]; compared to untreated control cells
  block of lucifer yellow dye transfer through gap junctions: hardly any passage of the dye
[3]
  effect on gap junction intercellular communication: Decrease
